Test system: BaF3-NPM-ALK cells
Test: Cytotoxicity experiment, ALK WT cells
Assay type: cell-based, murine
Conditions: two days incubation
Experimental: The cell line that can be used in the assay is Ba/F3, a murine pro-B cell line that has been stably transfected with the expression vector pClneo™ (Promega Corp., Madison Wis.) encoding NPM-ALK and subsequently G418-resistent cells were selected. The inhibitory activity of the compounds of Formula I can be determined as follows: BaF3-NPM-ALK cells (15000/well in a microtiter plate) were transferred to a 96-well microtiter plate. Test compounds (dissolved in DMSO) were then added in a series of concentrations (serial dilutions) with a final concentration of DMSO not exceeding 1% (v/v). […] The cell lysis was completed at room temperature within 60 minutes and the amount of Yopro bound to the DNA was determined by measurement using, for example, a CytoFluor II 96-well reader (PerSeptive Biosystems). IC50 can be determined by computer aided system using the following formula: IC50=[(ABS test−ABS start)/(ABS control−ABS start)]×100 wherein ABS was absorption.

| Structure (SMILES) | IC50 |
| --- | --- |
| CC1Oc2cc(cnc2N)-c2c(nn(C)c2C#N)CN(C)C(=O)c2ccc(F)cc21 (racemic) [Compound 28] | < 1 nM |
| CC1Oc2cc(cnc2N)-c2c(nn(C)c2C#N)CN(C)C(=O)c2ccc(F)cc21 (racemic) [Compound 45] | < 1 nM |
| CC1Oc2cc(cnc2N)-c2c(nn(C)c2C#N)CN(C)C(=O)c2ccc(F)cc21 (racemic) [Compound 58] | < 1 nM |
| CC1Oc2cc(cnc2N)-c2c(nn(C)c2C#N)CN(C)C(=O)c2ccc(F)cc21 (racemic) [Compound 72] | < 1 nM |
| CC1Oc2cc(cnc2N)-c2c(nn(C)c2C#N)CN(C)C(=O)c2ccc(F)cc21 (racemic) [Compound 76] | < 1 nM |
| CC1Oc2cc(cnc2N)-c2c(nn(C)c2C#N)CN(C)C(=O)c2ccc(F)cc21 (single isomer, unassigned) [Compound 18] | < 1 nM |
| C[C@H]1Oc2cc(cnc2N)-c2c(nn(C)c2C#N)CN(C)C(=O)c2ccc(F)cc21 [PF-06463922, reference compound] | < 1 nM |

Reference: patent US10780082B2, “Macrocycle and composition comprising thereof” (Shenzhen TargetRx, Inc., priority 2016, dated 2020)
